The text below walks through data of BindingDB's records for doi:10.1016/j.bmcl.2009.05.071 (Astrazeneca, 2009).

The structures appear in SMILES notation.

The test addresses T1, Procathepsin L [114-333,T223A] (Homo sapiens, UniProt P07711, T223A).
T1 construct: 114-333
The test is described as follows: Cathepsin Inhibition Assay. As to conditions: pH 7; 37 °C. Here is the method:
IC50 values for inhibition of Cathepsins were determined from dose dependent inhibition of cleavage of fluorogenic, AMC-tagged, peptide substrates.

T1 sequence (P07711 114-333 T223A): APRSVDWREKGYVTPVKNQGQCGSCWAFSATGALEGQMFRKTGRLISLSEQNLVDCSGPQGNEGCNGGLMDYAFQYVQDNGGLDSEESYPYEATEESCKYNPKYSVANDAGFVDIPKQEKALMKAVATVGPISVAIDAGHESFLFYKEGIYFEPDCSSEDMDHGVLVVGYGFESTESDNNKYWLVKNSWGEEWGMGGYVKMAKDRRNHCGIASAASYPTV

Consider `N#CCNC(=O)[C@H](Cc1cccc(Cl)c1)NC(=O)c1ccccc1` [Dipeptidyl nitrile inhibitor, 1], for which the half-inhibitory concentration (IC50) (as a rule, the concentration at which inhibition is half-maximal) turned out to be 251 nM.

In turn, `Cn1nc(C(C)(C)C)cc1C(=O)N[C@@H](Cc1cccc(Cl)c1)C(=O)NCC#N` [Dipeptidyl nitrile inhibitor, 25] gave an IC50 of 13 nM.
